The text below walks through data of PMC6273065, “Synthesis, Molecular Modelling and Biological Evaluation of Novel Heterodimeric, Multiple Ligands Targeting Cholinesterases and Amyloid Beta” (Molecules, 2016).

Structures are written as SMILES. Read-outs that look alike come from different tables or passages of the source. Marks after values point to notes of the source that are not given here.

The target of data set [1] is T1, EqBuChE (Equus caballus, UniProt P81908).
T1 construct: BuChE from equine serum (EqBuChE, Sigma–Aldrich); purchased Sigma–Aldrich; host or cells: equine serum
As to conditions: % inhibition at 50 μM lower than 50%; cited from earlier work.

Data set [2] deals with T2, Aβ1–42 (Homo sapiens, UniProt P05067).
T2 construct: Recombinant human HFIP-pretreated Aβ1–42 peptide; purchased Merck Millipore Lot number 2387442
Also on record: method as in PMID 26032855. To be noted: 10 µM compound, self-induced; mean ± SD; cited from earlier work.

In data set [3] the target is T3, EeAChE (Electrophorus electricus, UniProt O42275).
T3 construct: purchased Sigma–Aldrich
As to conditions: cited from earlier work.

The next data set has as its system Aβ12–23. As to conditions: 50 µM compound, self-induced Aβ12–23 aggregation; mean ± SD; cited from earlier work.
The target in data set [4] is T3, EeAChE. Description: biochemical. It counts as biochemical. Here is the method:
(§1) Ellman’s method was used to determine the activity of the synthesized compounds against AChE from electric eel (Electrophorus electricus, EeAChE) and BuChE from equine serum (EqBuChE).
(§2) All assays were performed in 0.1 M phosphate buffer pH 8.0. The tested compounds or water in a blank sample (25 µL) were incubated with the enzyme (20 µL) for 5 min at 25 °C in buffer (765 µL) prior to starting the reaction. Then, DTNB (20 µL) and ATC (20 µL) were added. […] Each condition was measured in triplicate. The percentages of enzyme inhibition were calculated from the equation 100%—Ai/A0 × 100%, where Ai is the absorbance of a sample with an inhibitor and A0 is the absorbance of a blank sample (100% activity of the enzyme). The IC50 values were calculated using GraphPad Prism 5. Data is expressed as mean ± SEM.

The target in data set [5] is T3, EeAChE. Kind of data set: Kinetic characterization of EeAChE inhibition (Lineweaver–Burk, Cornish–Bowden plots). It counts as biochemical. To be noted: Lineweaver–Burk and Cornish–Bowden plots, ATC 0.067–0.5 mM. Here is the method: Both types of inhibition were further confirmed by Cornish–Bowden plots (S/V vs. [I]) (A. in Supplementary Materials).
To estimate the type of inhibition of EeAChE, the same experimental protocol as reported above (4.3.1) was performed. Different concentrations of the substrate ATC (0.067–0.5 mM) were used to create Lineweaver-Burk plots by plotting the inverse initial velocity (1/V) as a function of the inverse of the substrate concentration (1/[S]). The stock solution of ATC (0.5 mM in a well) was prepared in water and diluted before use to obtained 0.4, 0.3, 0.2, 0.1and 0.067 mM concentrations of substrate. The double reciprocal plots were assessed by a weighted least square analysis that assumed the variance of V to be a constant percentage of V for the entire data set. Each experiment was performed in triplicate. Then, to confirm the mode of inhibition, Cornish-Bowden plots were obtained by plotting S/V (substrate concentration/velocity ratio) versus the inhibitor concentration [I]. Data analysis was performed with GraphPad Prism 5.

Data set [6] addresses T1, EqBuChE. Kind of data set: biochemical. Here is the method:
as §1, §2

Data set [7] has as its target T2, Aβ1–42. Description: Thioflavin-T fluorometric assay of self-induced Aβ1–42 aggregation. It counts as biochemical. To be noted: 10 µM compound, 1.5 µM Aβ1–42; mean ± SD; <10 = defined as not active; read-out: Aβ1–42 Aggreg. % of inhibition. An excerpt:
Mechanisms of Aβ aggregation remain unclear. Besides the self-induced assembly of Aβ, several other factors affect its aggregation, including metal ions, AChE [45], and oxidative stress. Therefore, we evaluated our compounds using the most versatile and commonly used Aβ1–42 aggregation Thioflavin T assay. Seven structurally diverse compounds were selected (one from each subseries) to test their ability to inhibit self-induced Aβ1–42 aggregation.
Thioflavin-T (ThT) fluorometric assay was performed to investigate the effect of the test compounds on the self-aggregation of Aβ1–42. […] Each sample was prepared in quadruplicate, and the DMSO was always at 3%. To quantify amyloid fibril formation, the ThT fluorescence was measured through the bottom of the plate every 180 s at an excitation wavelength of 440 nm and emission wavelength of 490 nm, with the medium continuously shaking between measurements using a 96-well microplate reader (Synergy™ H4, BioTek Instruments, Inc., Winooski, VT, USA). […] The fluorescence intensities at the plateau in the absence and presence of the test compounds were averaged, and the average fluorescence of the corresponding wells at t = 0 h was subtracted.

The conditions of data set [8]: PAMPA-BBB; for Log Pe: 2 h at 37 °C, means of two replicates; for Prediction of BBB penetration: class from log Pe. Here is the method: For anti-Alzheimer drug candidates, the ability to cross the blood–brain barrier and to enter the central nervous system (CNS) is crucial to achieve their pharmacological target and activity.
The BBB-PAMPA Explorer Test System was purchased from pION Inc. The in vitro permeability through BBB-1 lipid membrane was determined for 7 commercial drugs and the tested compounds. The compounds were dissolved in DMSO (10 mM stock solution) and diluted with Prisma HT buffer (5 µL/1 mL). Then, the […] 96-well microplate was filled with solution of the tested compounds in buffer (200 µL/well). The filter membrane in acceptor 96-well microplate was impregnated with BBB-1 lipid solution (5 µL/well) and the acceptor plate was filled with Brain Sink Buffer (200 µL/well). The acceptor plate was carefully placed on the donor plate to form a sandwich that was left undisturbed for 2 h at 37 °C. After incubation, the donor plate was carefully removed. The concentration of compounds in the acceptor, the donor, and the reference wells were measured using EnSpire Multimode Microplate Reader (PerkinElmer).

T3 sequence (O42275 24-633): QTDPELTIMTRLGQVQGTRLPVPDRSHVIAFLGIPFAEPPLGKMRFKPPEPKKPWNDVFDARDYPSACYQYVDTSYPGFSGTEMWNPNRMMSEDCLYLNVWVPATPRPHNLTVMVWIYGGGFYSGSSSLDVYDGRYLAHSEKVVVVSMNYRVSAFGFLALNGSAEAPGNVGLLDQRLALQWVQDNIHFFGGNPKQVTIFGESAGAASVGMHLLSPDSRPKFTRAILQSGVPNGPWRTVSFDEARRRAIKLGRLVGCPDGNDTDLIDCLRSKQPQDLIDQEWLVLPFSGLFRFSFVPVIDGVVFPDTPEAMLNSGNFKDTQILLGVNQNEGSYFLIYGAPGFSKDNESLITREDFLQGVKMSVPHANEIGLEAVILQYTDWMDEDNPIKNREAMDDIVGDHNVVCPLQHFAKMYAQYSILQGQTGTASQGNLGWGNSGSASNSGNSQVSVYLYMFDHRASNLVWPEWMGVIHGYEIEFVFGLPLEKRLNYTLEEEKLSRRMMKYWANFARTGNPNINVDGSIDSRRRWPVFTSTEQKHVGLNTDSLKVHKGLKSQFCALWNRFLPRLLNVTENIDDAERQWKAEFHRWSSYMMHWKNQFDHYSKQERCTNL
T2 sequence (P05067 672-713): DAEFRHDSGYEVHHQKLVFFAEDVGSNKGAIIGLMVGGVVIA
T1 sequence (P81908 whole entry): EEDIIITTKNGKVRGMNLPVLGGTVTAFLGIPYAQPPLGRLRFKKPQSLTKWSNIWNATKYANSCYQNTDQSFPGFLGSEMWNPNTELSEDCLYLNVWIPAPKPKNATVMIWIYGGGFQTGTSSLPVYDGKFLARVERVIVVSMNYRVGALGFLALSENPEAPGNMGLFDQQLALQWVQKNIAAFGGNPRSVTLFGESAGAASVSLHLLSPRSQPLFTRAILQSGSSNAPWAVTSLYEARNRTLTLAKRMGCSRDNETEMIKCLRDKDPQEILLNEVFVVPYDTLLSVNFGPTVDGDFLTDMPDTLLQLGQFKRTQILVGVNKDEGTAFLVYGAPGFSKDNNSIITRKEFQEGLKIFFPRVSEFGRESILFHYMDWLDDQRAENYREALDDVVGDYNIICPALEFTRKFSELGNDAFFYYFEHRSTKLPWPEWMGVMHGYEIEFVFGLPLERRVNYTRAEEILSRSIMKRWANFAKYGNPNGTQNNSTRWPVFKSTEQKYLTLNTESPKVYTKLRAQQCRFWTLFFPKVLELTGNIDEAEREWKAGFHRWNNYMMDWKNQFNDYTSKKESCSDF

For `O=C1c2ccccc2S(=O)(=O)N1CCCCCNCc1ccccc1` [Compd. II], the half-maximal inhibitory concentration (IC50) – broadly, the point on the concentration scale where inhibition reaches its midpoint – on EqBuChE [1] is > 50000 nM; on EeAChE [3], 36 ± 1 nM. Besides, the “Aβ1–42 Aggreg. % of inhibition” value on Aβ1–42 [2] is recorded as 22.19 ± 16.6%.

In the case of `CCN(CC)CCCCCCCCN1C(=O)c2ccccc2C1=O` [Compd. I], the “Aβ12–23 aggregation % of inhibition” value in the data set on Aβ12–23 is 30.10 ± 5.78 ^f %.

Regarding `O=C1c2ccccc2C(=O)N1CCCCCCCN1CCCC1` [Compound 3, 2-(7-(Pyrrolidin-1-yl)heptyl)isoindoline-1,3-dione], the figures for the IC50 against EeAChE [4] and against EqBuChE [6] were 276 ± 3 nM and > 50000 nM, respectively. For the same compound, the “type of EeAChE inhibition” value on EeAChE [5] is reported as “mixed type of enzyme inhibition”.

With `O=C1c2ccccc2C(=O)N1CCCCCCCCN1CCCC1` [Compound 4, 2-(8-(Pyrrolidin-1-yl)octyl)isoindoline-1,3-dione], 282 ± 11 nM corresponded to half-maximal inhibition against EeAChE [4] (IC50). Besides, at Aβ1–42 [7], the inhibition (in general, the percentage by which the read-out fell short of the control) at 10 µM worked out at 15.2 ± 3.06%. Further, on EeAChE [5], the “type of EeAChE inhibition” value was “mixed type of enzyme inhibition”. At EqBuChE [6], this compound gave an IC50 of 3240 ± 141 nM. Besides, in data set [8], the “Log Pe” value is on record as “–4.0” and the “Prediction of BBB penetration” value was “CNS+ (CNS+, log Pe > −4.5, high permeability (i.e., can enter the CNS))”.

In the case of `O=C1c2ccccc2C(=O)N1CCCCCCN1CCc2ccccc2C1` [Compound 11, 2-(6-(3,4-dihydroisoquinolin-2(1H)-yl)hexyl)isoindoline-1,3-dione], the IC50 came to 387 ± 3 nM against EeAChE [4] and 5120 ± 90 nM against EqBuChE [6]. Also, the “type of EeAChE inhibition” value at EeAChE [5] is reported as “mixed type of enzyme inhibition”.

With `O=C1c2ccccc2S(=O)(=O)N1CCCCCNCc1cccc(Cl)c1` [Compound 42, 2-(5-(3-chlorobenzylamino)pentyl)benzo[d]isothiazol-3(2H)-one 1,1-dioxide], the half-maximal inhibitory concentration (IC50) against EeAChE [4] was 70 ± 1 nM. The inhibition at 10 µM at Aβ1–42 [7] was 16.5 ± 3.01%. The “type of EeAChE inhibition” value at EeAChE [5] is “linear non-competitive type of inhibition”. In addition, at EqBuChE [6], the IC50 is > 50000 nM. Besides, in data set [8], the “Log Pe” value is reported as “–4.3” and the “Prediction of BBB penetration” value is “CNS+ (CNS+, log Pe > −4.5, high permeability (i.e., can enter the CNS))”.
